Where two headings read alike, the source gives them in different places.
Legend:
Format in all cases: cell-based
[1] = test system: MDA-MB-231 (breast cancer); test: Antiproliferative activity (CCK-8 cell viability), MDA-MB-231; conditions: Homo sapiens, 72 h; for inhibition at 3.3 µM: Compound concentration: 3.3 μM; for inhibition at 10 µM: Compound concentration: 10 μM; for inhibition at 30 µM: Compound concentration: 30 μM
Summary of the method: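 MDA-MB-231 breast cancer cells, grown in DMEM with 10% FBS, were plated in 96-well plates at 2,000-5,000 cells/well. Once attached, they were exposed to compound and incubated at 37° C. for 72 h. Viability was then measured with CCK-8 (10 μL per well, 4 h at 37° C.) by absorbance at 450 nm, relative to DMSO vehicle wells.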

[2] = test system: HepG2 (liver cancer); test: Antiproliferative activity (CCK-8 cell viability), HepG2; conditions: Homo sapiens, 72 h; for inhibition at 3.3 µM: Compound concentration: 3.3 μM; for inhibition at 10 µM: Compound concentration: 10 μM; for inhibition at 30 µM: Compound concentration: 30 μM
Summary of the method: (§1)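 Cells grown in DMEM (HepG2, SW480), MEM (HeLa) or F-12K (A549), each with 10% FBS, then exposed to compound at 3.3, 10 or 30 μM for 72 h at 37 °C. CCK-8 absorbance at 450 nm; viability expressed as percent of DMSO-treated cells, graded as growth inhibition bands.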

[3] = test system: SW480 (colon cancer); test: Antiproliferative activity (CCK-8 cell viability), SW480; conditions: Homo sapiens, 72 h; for inhibition at 3.3 µM: Compound concentration: 3.3 μM; for inhibition at 10 µM: Compound concentration: 10 μM; for inhibition at 30 µM: Compound concentration: 30 μM
Summary of the method: as §1

[4] = test system: B16F10 (malignant melanoma); test: Antiproliferative activity (CCK-8 cell viability), B16F10; conditions: Mus musculus, 72 h; for inhibition at 3.3 µM: B16-F10, Compound concentration: 3.3 μM; for inhibition at 10 µM: B16-F10, Compound concentration: 10 μM; for inhibition at 30 µM: B16-F10, Compound concentration: 30 μM
Summary of the method: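 B16F10 melanoma cells grown in DMEM with 10% FBS were plated in 96-well plates at 2,000-5,000 cells/well. After attachment they were exposed to compound in medium for 72 h at 37° C. CCK-8 solution (10 μL) was then added, and after 4 h at 37° C absorbance was read at 450 nm.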

[5] = test system: A431 (epidermoid carcinoma); test: Antiproliferative activity (CCK-8 cell viability), A431; conditions: Homo sapiens, 72 h; for inhibition at 3.3 µM: A-431, Compound concentration: 3.3 μM; for inhibition at 10 µM: A-431, Compound concentration: 10 μM; for inhibition at 30 µM: A-431, Compound concentration: 30 μM
Summary of the method: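 A431 epidermoid carcinoma cells grown in DMEM with 10% FBS were plated at 2,000-5,000 cells/well in 96-well plates. After attachment they were exposed to compound at 3.3 μM, 10 μM, or 30 μM for 72 h at 37° C. Viability was then assessed by CCK-8 against DMSO vehicle-treated wells.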

[6] = test system: A549 (lung adenocarcinoma); test: Antiproliferative activity (CCK-8 cell viability), A549; conditions: Homo sapiens, 72 h; for inhibition at 3.3 µM: Compound concentration: 3.3 μM; for inhibition at 10 µM: Compound concentration: 10 μM; for inhibition at 30 µM: Compound concentration: 30 μM
Summary of the method: as §1

[7] = test system: HeLa (cervical cancer); test: Antiproliferative activity (CCK-8 cell viability), HeLa; conditions: Homo sapiens, 72 h, read-out: Antiproliferative activity in cancerous cells, HELA (inhibition of cell growth); for inhibition at 3.3 µM: Compound concentration: 3.3 μM; for inhibition at 10 µM: Compound concentration: 10 μM
Summary of the method: as §1

[8] = read-out: Antiproliferative activity in cancerous cells, MDA-MB-231 (inhibition of cell growth)
[9] = read-out: Antiproliferative activity in cancerous cells, HepG2 (inhibition of cell growth)
[10] = read-out: Antiproliferative activity in cancerous cells, SW480 (inhibition of cell growth)
[11] = read-out: Antiproliferative activity in cancerous cells, B16F10 (inhibition of cell growth)
[12] = read-out: Antiproliferative activity in cancerous cells, A431 (inhibition of cell growth)
[13] = read-out: Antiproliferative activity in cancerous cells, A549 (inhibition of cell growth)
[14] = read-out: Antiproliferative activity in cancerous cells, SW480
[15] = read-out: Antiproliferative activity in cancerous cells, A431

Row | Structure (SMILES) | inhibition at 3.3 µM [1, 8] [%] | inhibition at 10 µM [1, 8] [%] | inhibition at 3.3 µM [2, 9] [%] | inhibition at 10 µM [2, 9] [%] | inhibition at 3.3 µM [3, 10] [%] | inhibition at 10 µM [3, 10] [%] | inhibition at 3.3 µM [4, 11] [%] | inhibition at 10 µM [4, 11] [%] | inhibition at 3.3 µM [5, 12] [%] | inhibition at 10 µM [5, 12] [%] | inhibition at 3.3 µM [6, 13] [%] | inhibition at 10 µM [6, 13] [%] | inhibition at 3.3 µM [7] [%] | inhibition at 10 µM [7] [%] | inhibition at 30 µM [3, 14] [%] | inhibition at 30 µM [5, 15] [%] | other results
1 | CC1=C(CC(=O)O)c2cc(F)ccc2/C1=C\c1cccc(C(F)(F)c2ccccc2)c1 [C301, (Z)-2-(1-(3-(Difluoro(phenyl)methyl)benzylidene)-5-fluoro-2-methyl-1H-inden-3-yl)acetic acid] | ≥ 50 | ≥ 50 | < 30 | < 30 | < 30 | < 30 | 30 to 50 | ≥ 50 | < 30 | < 30 | < 30 | < 30 | < 30 | ≥ 50 | – | – | inhibition at 30 µM [1, 8]: ≥ 50%; inhibition at 30 µM [2, 9]: ≥ 50%; inhibition at 30 µM [3, 10]: ≥ 50%; inhibition at 30 µM [4, 11]: ≥ 50%; inhibition at 30 µM [5, 12]: ≥ 50%; inhibition at 30 µM [6, 13]: ≥ 50%; inhibition at 30 µM ([7]; Compound concentration: 30 μM): ≥ 50%
2 | CC1=C(CC(=O)O)c2cc(Br)ccc2/C1=C\c1ccc(Oc2ccc(F)cc2)cc1 [C86, (Z)-2-(5-Bromo-1-(4-(4-fluorophenoxy)benzylidene)-2-methyl-1H-inden-3-yl)acetic acid] | < 30 | < 30 | < 30 | < 30 | < 30 | < 30 | < 30 | 30 to 50 | 30 to 50 | 30 to 50 | < 30 | < 30 | < 30 | < 30 | < 30 | 30 to 50 | inhibition at 30 µM ([1]; read-out: Antiproliferative activity in cancerous cells, MDA-MB-231): < 30%; inhibition at 30 µM ([2]; read-out: Antiproliferative activity in cancerous cells, HepG2): < 30%; inhibition at 30 µM ([4]; read-out: Antiproliferative activity in cancerous cells, B16F10): 30 to 50%; inhibition at 30 µM ([6]; read-out: Antiproliferative activity in cancerous cells, A549): < 30%
3 | CC1=C(CC(=O)O)c2cc(F)c(F)cc2/C1=C\c1ccc(COc2ccc(F)cc2)cc1 [B53, (Z)-2-(5,6-Difluoro-1-(4-((4-fluorophenoxy)methyl)benzylidene)-2-methyl-1H-inden-3-yl)acetic acid] | ≥ 50 | ≥ 50 | < 30 | < 30 | 30 to 50 | 30 to 50 | 30 to 50 | ≥ 50 | 30 to 50 | 30 to 50 | < 30 | 30 to 50 | < 30 | < 30 | 30 to 50 | 30 to 50 | –

Source: US20260184663A1, “INDENE COMPOUNDS, PHARMACEUTICAL COMPOSITIONS THEREOF, AND THEIR THERAPEUTIC APPLICATIONS” (NucMito Pharmaceuticals co. Ltd., priority 2022, published 2026)
